Columns and labels:
[1] = tested on: WM9 PRL-1R86 transfectant; test: Growth of WM9 PRL-1R86 transfectant (MTT); type: cell-based, human; conditions: 50 or 100 μg/ml, 6 days
Description: (§1) NIH3T3 (Yi, et al., Blood 85, 87 (1995)), WM9 (Forsberg, et al., Proc. Nat. Acad Sci. USA 90, 393 (1993)), DU145 (Mickey, et al., Cancer Res. 37, 4049 (1977)), LoVo (Drewinko, et al., Cancer Res. 36, 467 (1976)), HEY (Buick, et al., Cancer Res. 45, 3668 (1985)), U251 (Yoshida, et al., Cancer 50, 410 (1982)), A549 (Giard, et al., J. Natl. Cancer Inst. 51, 1417 (1973)) and SK-N-SH (Helson, et al., Cancer Res. 35, 2594 (1975)) cell lines have been described and were cultured in RPMI 1640 supplemented with 10% fetal calf serum (FCS). For measurement of sodium stibogluconate effects on cell growth in vitro, cells were cultured in the absence (−) or presence (+) of various amounts of sodium stibogluconate for 6 days with viable cells quantified by MTT assays (Mosmann, J. Imunol. Methods 65, 55 (1983)). Percentages of growth inhibition by sodium stibogluconate were calculated (+/−×%).
The effects of sodium stibogluconate on intracellular PTPases were assessed using NIH3T3 or WM9 transfectants. NIH3T3 or WM9 cells were transfected with the pBabepuro vector (V) or pBabepuro expression constructs of Flag-tagged PRLs using Lipofectamine (BRL) following the manufacturer's procedures. […]

DU145R cells = test: Cell growth assay (MTT), DU145R cells; type: cell-based, human; conditions: day 6 culture
Description: DU145 cells were cultured in the presence of sodium stibogluconate (100 μg/ml) in 48 well plates for 3 weeks. Cells from a well containing a single colony were transferred to flasks, cultured in sodium stibogluconate-free medium for 3 weeks and used as DU145R cells for further characterization. Growth of DU145R cells in the absence or presence of sodium stibogluconate in day 6 culture was determined by MTT assays. cDNAs of the coding region of PRLs were derived by RT-PCR from DU145 and DU145R cells and sequenced using primers described below.

U251 cells = test: Cell growth assay (MTT), U251 glioma cells; type: cell-based, human; conditions: 100 μg/ml, day 6
Description: as §1

SHP-1 = target: T1, SHP-1 (Mus musculus, UniProt P29351); test: In vitro PTPase assay, GST/SHP-1 fusion protein; type: biochemical
T1 construct: made in house
Description: In vitro PTPase activities were measured using the commercial protein tyrosine phosphatase assay kit (Upstate Biotechnology, Inc. (“UBI”)) following established procedure known to one of skill in the art. […] 100 μl of Malachite Green solution was added and incubated for 5 minutes, and the absorbance at 660 nm was measured after 5 minutes.
The beads were then either subjected to in vitro PTPase assays or washed 3 times in Tris buffer then subjected to in vitro PTPase assays.
Briefly, individual PTPases (0.1 μg/reaction) in 50 μL of PTPase buffer (50 mM Tris, pH 7.4) were incubated at 22° C. for 10 minutes or as indicated in the absence or presence of inhibitory compounds. […] […] […] Relative PTPase activities were calculated based on the formula: (PTPase activity in the presence of an inhibitory compound/PTPase activity in the absence of the compound)×100%. To assess the reversibility of PTPase inhibition, GST fusion proteins of the PTPases bound on glutathione beads (Pharmacia) were pre-incubated with cold Tris buffer (50 mM Tris, pH 7.0) or Tris buffer containing the inhibitor at 4° C. for 30 minutes. The beads were then washed three times in cold Tris buffer or not washed prior to subjecting to in vitro PTPase assays.

DS cells = test: Cell proliferation assay (MTT), DS lymphoma cells; type: cell-based, human; conditions: day 3; IFN-alpha 1,000 u/ml
Description: (§2) For cell proliferation assays, cells were grown in 10% FCS culture medium containing various amounts of IFNs and/or sodium stibogluconate in 96 well plates and cultured at 37° C. for 3 or 6 days as indicated. The numbers of viable cells in proliferation assays were determined by MTT assays as described in Phatak et al., J. Immunol. 167, 3391 (2001).

Stat1 = test: IFN-alpha-induced Stat1 tyrosine phosphorylation, DU145 cells; type: cell-based, human; conditions: DU145, 5 hours post-stimulation
Description: For induction of Stat1 tyrosine phosphorylation by IFN-alpha in the absence or presence of sodium stibogluconate, cells grown in 10% FCS RPMI 1640 medium at 37° C. were stimulated with IFN-alpha (50 u/ml) for various time points and treated with or without sodium stibogluconate for 5 minutes prior to termination by lysing the cells in cold lysis buffer (1% NP-40; 50 mM Tris, pH 7.4; 100 mM NaCl; 1 mM EDTA, 10% glycerol, 10 mM sodium molybdic acid and 4 mM AEBSF).
Cell lysates were prepared by lysing cells in cold lysis buffer for 30 min and cleared by centrifuging at 14,000 rpm at 4° C. for 15 min. For SDS-PAGE, cell lysates were mixed with equal volume of 2×SDS-PAGE sample buffer, heated at 90° C. for 5 min and separated in 10% SDS-PAGE gels. Cellular proteins in SDS-PAGE gels were transferred to nitrocellulose membrane (Schleicher & Schuell, Keene, N.H.), blocked in 5% milk, probed with antibodies and detected by using an enhanced chemiluminescence kit (ECL, Amersham, Arlington Heights, Ill.).

C42 cells = test: Cell proliferation assay (MTT), C42 prostate cancer cells; type: cell-based, human
Description: as §2

WM35 cells = test: Cell proliferation assay (MTT), WM35 melanoma cells; type: cell-based, human
Description: as §2

T1 sequence (P29351 whole entry, the tested form may be a part): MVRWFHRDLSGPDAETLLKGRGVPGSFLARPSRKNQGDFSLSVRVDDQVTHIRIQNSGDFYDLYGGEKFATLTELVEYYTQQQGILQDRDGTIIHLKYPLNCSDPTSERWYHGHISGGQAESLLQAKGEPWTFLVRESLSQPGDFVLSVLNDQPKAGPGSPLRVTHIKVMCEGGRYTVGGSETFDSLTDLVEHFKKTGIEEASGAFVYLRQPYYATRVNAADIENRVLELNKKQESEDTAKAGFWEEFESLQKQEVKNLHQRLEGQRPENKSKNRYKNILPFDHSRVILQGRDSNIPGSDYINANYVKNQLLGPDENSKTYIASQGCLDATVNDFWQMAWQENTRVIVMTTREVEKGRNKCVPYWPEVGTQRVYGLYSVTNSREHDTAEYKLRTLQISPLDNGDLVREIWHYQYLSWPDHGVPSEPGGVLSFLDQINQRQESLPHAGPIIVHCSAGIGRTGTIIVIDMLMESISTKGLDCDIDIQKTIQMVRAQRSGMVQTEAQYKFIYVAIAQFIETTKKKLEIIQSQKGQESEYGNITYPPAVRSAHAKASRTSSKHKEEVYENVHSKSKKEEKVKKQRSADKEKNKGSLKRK

For `O.O.O.O.O.O.O.O.O.O=C([O-])[C@@H]1[O][Sb]2([O-])([O][Sb]34([OH])[O][C@H]([C@H](O)CO)[C@H]([O]3)[C@H](C(=O)[O-])[O]4)[O][C@H]([C@H](O)CO)[C@@H]1[O]2.[Na+].[Na+].[Na+]` [sodium stibogluconate], the “growth inhibition of R86 cells at higher doses” value [1] was “only modest growth inhibition”, the “growth of DU145R cells versus parental DU145” value (DU145R cells) was “growth resistance to sodium stibogluconate” and the “cell killing, U251” value (U251 cells) was “near-complete cell killing”. For the same compound, the “dephosphorylation of pNPP by SHP-1, SHP-2 and PTP1B” value (SHP-1; pNPP substrate) was “similarly inhibited”, the “activity against recombinant SHP-1 of HPLC fractions and parental mixture” value (SHP-1; parental mixture at Sb concentration of 10 μg/ml) was “inactivated SHP-1” and the “reversibility of SHP-1 inhibition by washing” value (SHP-1; pre-incubated at 4° C. 30 minutes, beads washed 3 times) was “not affected by washing”. The “activity against DS cells” value (DS cells) was “modest activity”, the “IFN-alpha-induced Stat1 tyrosine phosphorylation” value (Stat1) was “Enhanced” and the “sensitivity of C42 cells” value (C42 cells) was “highly resistant”. For the same compound, the “sensitivity of WM35 cells” value (WM35 cells) was “minimally affected”.
